Laboratory results published in patent US6403625B1, “Fluorescent labeling reagents” (Daiichi Pure Chemicals Co., Ltd., priority 1998, dated 2002).

Tests used:
[1] = UV-vis absorption spectrum; format: physicochemical; settings: Table 2
Protocol: All the melting points were measured with a Yanagimoto-Micro apparatus and were not corrected. Nuclear magnetic resonance (^1H-NMR) spectrum of a protein was recorded by using a spectrometer, JEOL-FX-200 or JEOL-GSX-400. Chemical shifts were indicated as δ values (ppm) using tetramethylsilane as the internal standard. The fast atom bombardment mass spectrometric analysis (FAB) or the electron ionization mass spectrometric analysis (El) was performed by using a JEOL-SX-102A apparatus. […] The UV-vis spectrum was measured by using a Beckmann's 650-40 spectrometer. The fluorescence spectrum was recorded with a Hitachi's 650-40 luminescence spectrometer. […]
A DMF solution (250 μl ) of compound (6) of the present invention obtained in Example 1 (3.7 μmol/ml) was added to a 0.1 M phosphate buffer solution (pH 7.5, 1 ml) of BSA (2 mg). […] Then, the aqueous layer containing the labeled protein and the ethyl acetate layer were subjected to UV-vis and fluorescence analyses.
As a result, the ratios of the fluorescent substance in the aqueous layer and the ethyl acetate layer were 44% in BSA and 69% in IgG. The protein concentration in the labeled protein was measured by using a protein assay kit (Bio-Rad, CA), and the total ICG concentration in the labeled protein was determined from the absorbance (789 nm) of the DMF solution and the ε value of the ICD derivative. […]

[2] = Fluorescence spectrum (excitation/emission); format: physicochemical
Protocol: All the melting points were measured with a Yanagimoto-Micro apparatus and were not corrected. Nuclear magnetic resonance (^1H-NMR) spectrum of a protein was recorded by using a spectrometer, JEOL-FX-200 or JEOL-GSX-400. Chemical shifts were indicated as δ values (ppm) using tetramethylsilane as the internal standard. The fast atom bombardment mass spectrometric analysis (FAB) or the electron ionization mass spectrometric analysis (El) was performed by using a JEOL-SX-102A apparatus. […] The UV-vis spectrum was measured by using a Beckmann's 650-40 spectrometer. The fluorescence spectrum was recorded with a Hitachi's 650-40 luminescence spectrometer. The column chromatography was performed by using Merck's Silica Gel 60 (70-230 mesh). The compound numbers in Examples correspond to those in the aforementioned scheme.
A DMF solution (250 μl ) of compound (6) of the present invention obtained in Example 1 (3.7 μmol/ml) was added to a 0.1 M phosphate buffer solution (pH 7.5, 1 ml) of BSA (2 mg). The reaction mixture was allowed to stand for 30 minutes and subjected to Sephadex LH-20 column chromatography (1.5 cm×50 cm), and then eluted with a 0.1 M phosphate buffer solution (pH 7.5) to obtain a fraction of ICG-labeled protein. For IgG (2 mg), the labeling reaction with a DMF solution (250 μl) of ICG-ATT (6) (3.7 μmol/ml) was carried out in a similar manner to the above by using 0.1 M carbonate buffer (pH 9.5) instead of 0.1 M phosphate buffer (pH 7.5). The 0.1 M phosphate or the carbonate buffer solution (1 ml), containing the ICG-labeled protein (BSA or IgG) obtained by the Sephadex LH-20 column chromatography, was added to ethyl acetate (1 ml), and the mixture was vigorously stirred for 30 minutes to remove fluorescent compounds which bound to the protein through noncovalent bond. Then, the aqueous layer containing the labeled protein and the ethyl acetate layer were subjected to UV-vis and fluorescence analyses.
As a result, the ratios of the fluorescent substance in the aqueous layer and the ethyl acetate layer were 44% in BSA and 69% in IgG. The protein concentration in the labeled protein was measured by using a protein assay kit (Bio-Rad, CA), and the total ICG concentration in the labeled protein was determined from the absorbance (789 nm) of the DMF solution and the ε value of the ICD derivative. The ratios of ICG versus protein (ICG/protein) in each ICG-labeled protein were 21.5 (BSA) and 23.6 (IgG). […] From the foregoing results, it is readily understood that the compounds of the present invention are useful as near infrared fluorescent labeling agents for proteins and oligopeptides.

CCN1C(=CC=CC=CC=CC2=[N+](CCCCCC(=O)N3CCSC3=S)c3ccc4ccccc4c3C2(C)C)C(C)(C)c2c1ccc1ccccc21.[Cl-] [ICG-ATT (6), 2-[7-(1,3-Dihydro-1,1-dimethyl-3-ethylbenz[e]indolin-2-ylidene)-1,3,5-heptatrienyl]-1,1-dimethyl-3-[[6-[(1,3-thiazolidine-2-thion)-1-yl]-6-oxo]hexyl]-1H-benz[e]indolium Chloride]
UV-vis abs (λmax) [1]: 789 nm
λ em ([2]; DMF): 830 nm
λ ex ([2]; DMF): 765 nm
fluorescent λem ([2]; Table 2): 830 nm
fluorescent λex ([2]; Table 2): 765 nm
